Laboratory results from BindingDB's records for doi:10.1016/j.bmc.2015.07.027 (Ocean University of China, 2015).

Test: Modulation of P-gp (unknown origin) transfected in human MDA435/LCC6MDR cells assessed as paclitaxel IC50 for cell growth inhibition at 1 uM after 5 days by MTS assay

SMILES | IC50
COc1ccc(C2=C(c3ccc(OC)c(OC)c3)C(=O)N(C(=O)N3CCN(CC(=O)c4ccc(S(C)(=O)=O)cc4)CC3)C2=O)cc1OC | 136 nM
COc1ccc(C2=C(c3ccc(OC)c(OC)c3)C(=O)N(C(=O)N3CCN(CC(=O)c4ccc(OCc5ccccc5)c(OC)c4)CC3)C2=O)cc1OC | 26 nM
CCCCC1OC(=O)c2cc(NC(=O)N3C(=O)C(c4ccc(OC)c(OC)c4)=C(c4ccc(OC)c(OC)c4)C3=O)ccc21 (centres undefined) | 58 nM
COc1ccc(C2=C(c3ccc(OC)c(OC)c3)C(=O)N(C(=O)Nc3ccc4c(c3)C(=O)OC4)C2=O)cc1OC | 126 nM
